From PubChem BioAssay (NCI)
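Abbreviation: GI50, concentration required for 50% inhibition of growth. TGI denotes the concentration required for complete inhibition of growth.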

Columns and labels:
Experiment in all cases: NCI-60 cell line screen, 384-well format
[1] = test system: HOP-62 NSCLC
[2] = test system: NCI-H226 lung
[3] = test system: SF-295 CNS
[4] = test system: OVCAR-5 ovarian
[5] = test system: EKVX NSCLC
[6] = test system: SN12C renal
[7] = test system: OVCAR-8 ovarian
[8] = test system: NCI-H23 lung
[9] = test system: MALME-3M melanoma
[10] = test system: PC-3 prostate
[11] = test system: HCC-2998 colon
[12] = test system: UACC-257 melanoma
[13] = test system: SR leukemia
[14] = test system: A498 renal
[15] = test system: SK-MEL-2 melanoma
[16] = test system: UO-31 renal
[17] = test system: SF-268 CNS
[18] = test system: MCF7 breast
[19] = test system: A549 NSCLC
[20] = test system: MDA-MB-231 breast
[21] = test system: HS 578T breast
[22] = test system: NCI-H460 NSCLC
[23] = test system: RPMI-8226 leukemia
[24] = test system: TK-10 renal
[25] = test system: HCT-116 colon
[26] = test system: MDA-MB-435 melanoma
[27] = test system: CCRF-CEM leukemia
[28] = test system: SK-MEL-5 melanoma
[29] = test system: KM12 colon
[30] = test system: SW-620 colon
[31] = test system: SNB-75 CNS
[32] = test system: SF-539 CNS
[33] = test system: SK-OV-3 ovarian
[34] = test system: HT29 colon
[35] = test system: RXF 393 renal
[36] = test system: UACC-62 melanoma
[37] = test system: HOP-92 NSCLC
[38] = test system: NCI-H522 lung
[39] = test system: DU-145 prostate
[40] = test system: OVCAR-3 ovarian
[41] = test system: MOLT-4 leukemia
[42] = test system: HCT-15 colon
[43] = test system: K-562 leukemia
[44] = test system: M14 melanoma
[45] = test system: NCI/ADR-RES ovarian
[46] = test system: SK-MEL-28 melanoma
[47] = test system: 786-0 renal

`CS(=O)(=O)c1ccc(C(=O)Nc2ccc(Cl)c(-c3ccccn3)c2)c(Cl)c1` was tested, and the GI50 [1] was 61.9 µM, the TGI [1] was > 100 µM and the GI50 [2] was 22.9 µM. For the same compound, the TGI [2] was 64.3 µM, the GI50 [3] was 33 µM and the TGI [3] was > 67.7 µM. The GI50 [4] was 54.2 µM, the TGI [4] was > 100 µM and the GI50 [5] was 48.3 µM. The TGI [5] was > 90.5 µM, the GI50 [6] was > 68.8 µM and the TGI [6] was > 100 µM. For the same compound, the GI50 [7] was 45.7 µM, the TGI [7] was 99.4 µM and the GI50 [8] was > 61.2 µM. For the same compound, the TGI [8] was > 100 µM, the GI50 [9] was 19 µM and the TGI [9] was 61.2 µM. The GI50 [10] was 55 µM, the TGI [10] was > 100 µM and the GI50 [11] was 24.6 µM. For the same compound, the TGI [11] was 56.8 µM, the GI50 [12] was 49.6 µM and the TGI [12] was > 89.7 µM. The GI50 [13] was 29 µM, the TGI [13] was 50.6 µM and the GI50 [14] was 31.9 µM. The TGI [14] was > 71.7 µM, the GI50 [15] was 33.8 µM and the TGI [15] was > 100 µM. For the same compound, the GI50 [16] was 35.4 µM, the TGI [16] was > 80.3 µM and the GI50 [17] was 45 µM. The TGI [17] was > 100 µM, the GI50 [18] was 35.3 µM and the TGI [18] was > 82.8 µM. For the same compound, the GI50 [19] was 41.1 µM, the TGI [19] was > 100 µM and the GI50 [20] was > 65.9 µM. The TGI [20] was > 100 µM, the GI50 [21] was 27.6 µM and the TGI [21] was > 84 µM. The GI50 [22] was 30.8 µM, the TGI [22] was > 70.3 µM and the GI50 [23] was 25 µM. The TGI [23] was 61.5 µM, the GI50 [24] was > 52.9 µM and the TGI [24] was > 100 µM. For the same compound, the GI50 [25] was 58.3 µM, the TGI [25] was > 100 µM and the GI50 [26] was > 62 µM. The TGI [26] was > 100 µM, the GI50 [27] was 19.9 µM and the TGI [27] was 50 µM. For the same compound, the GI50 [28] was 10.8 µM, the TGI [28] was > 29.3 µM and the GI50 [29] was 17.9 µM. For the same compound, the TGI [29] was > 56.7 µM, the GI50 [30] was > 64 µM and the TGI [30] was > 100 µM. It also gave a GI50 [31] of 32.3 µM, a TGI [31] of 80.3 µM and a GI50 [32] of 49.1 µM. For the same compound, the TGI [32] was > 100 µM, the GI50 [33] was > 72.5 µM and the TGI [33] was > 100 µM. For the same compound, the GI50 [34] was 18.3 µM, the TGI [34] was 36.7 µM and the GI50 [35] was 22.7 µM. For the same compound, the TGI [35] was 51.9 µM, the GI50 [36] was 44.4 µM and the TGI [36] was > 79.3 µM. The GI50 [37] was 31.2 µM, the TGI [37] was 79 µM and the GI50 [38] was 46 µM. The TGI [38] was > 100 µM, the GI50 [39] was 42.5 µM and the TGI [39] was > 86.8 µM. The GI50 [40] was 35.9 µM, the TGI [40] was > 83 µM and the GI50 [41] was 21.8 µM. For the same compound, the TGI [41] was 46.3 µM, the GI50 [42] was 26.2 µM and the TGI [42] was > 70.8 µM. It also gave a GI50 [43] of 16.3 µM, a TGI [43] of 31.1 µM and a GI50 [44] of 47.5 µM. The TGI [44] was > 100 µM, the GI50 [45] was 25.3 µM and the TGI [45] was 71.7 µM. The GI50 [46] was > 53.4 µM, the TGI [46] was > 100 µM and the GI50 [47] was 22.8 µM. It also gave a TGI [47] of 58.3 µM.
